Where “and” joins values, the source holds several entries; their conditions need not be identical. Equal values may be shown once.
Legend:
Format in all cases: binding
ciprofloxacin antibody [1] = experiment: Competitive ELISA for ciprofloxacin, pre-reaction mode vs direct addition (Embodiment 1)
Protocol: Coat the ELISA plate with ciprofloxacin BSA conjugate, 1 μg/mL, 100 μL per well, blocking overnight at 4° C. Then block with 3% skimmed milk powder the following day. Prepare ciprofloxacin standards, 0 ppb, 1 ppb, 3 ppb, 9 ppb, 27 ppb, 81 ppb with the wash buffer (PBST).
The experiment is divided into two groups.
Group 1: pre-incubate 60 μL standards and 60 μL diluted ciprofloxacin antibody for 20 minutes at 37° C.; then take 100 μL reaction product and add to the ELISA plate covering with ciprofloxacin conjugate, react for 30 minutes at 37° C.; wash the plate, add HRP labeled secondary antibody, react for 30 minutes at 37° C., wash the plate; add chromogenic agent 100 μL, react for 15 minutes at 37° C.; and finally add 50 μL termination solution, then measure the OD450 with a microplate reader.
Group 2: add into the ELISA plate covering with ciprofloxacin conjugate with 50 μL standard and 50 μL antibody, in the sequence; react for 30 minutes at 37° C., wash the plate; add HRP labeled secondary antibody, react for 30 minutes at 37° C., wash the plate; add chromogenic agent 100 μL, react for 15 minutes at 37° C.; and finally add 50 μL termination solution, then measure OD450 with a microplate reader.

ciprofloxacin antibody [2] = experiment: Competitive ELISA for ciprofloxacin, different re-reaction times (Embodiment 2)
Protocol: (§1) Coat the ELISA plate with ciprofloxacin BSA conjugate, 1 μg/mL, 100 μL per well, blocking overnight at 4° C. Then block with 3% skimmed milk powder the following day. Prepare ciprofloxacin standards, 0 ppb, 1 ppb, 5 ppb, and 10 ppb with wash buffer.
The experiment is divided into 5 groups, each group takes 100 μL standard and 100 μL ciprofloxacin antibody, pre-react for 20 minutes at 37° C. in the microplates, then add to ciprofloxacin ELISA plates:
Take 120 μL pre-reaction product to the ciprofloxacin ELISA plates from group 1, group 2, group 3 and group 4, and resume reacting for 30 minutes, 20 minutes, 10 minutes and 5 minutes respectively; wash the plate; add HRP labeled secondary antibody, react for 30 minutes at 37° C., wash the plate; add chromogenic agent 100 μL, react for 15 minutes at 37° C.; and finally add 50 μL termination solution, then measure the OD450.
Take 20 μL pre-reaction solution of antibody and standard from group 5 and add to the ciprofloxacin ELISA plate, react for 1 minute, discard the liquid in the well, and pat dry on absorbent paper, then add 20 μL mixture solution and react for 1 minute, repeat for 6 times altogether; wash the plate; add HRP labeled secondary antibody, react for 30 minutes at 37° C., wash the plate; add chromogenic agent 100 μL, react for 15 minutes at 37° C.; and finally add 50 μL termination solution, then measure the OD450.

ciprofloxacin antibody [3] = experiment: Competitive ELISA for ciprofloxacin, different pre-reaction times (Embodiment 3); conditions: re-reaction 1 min, 6 times
Protocol: as §1
The experiment is divided into 4 groups, each group takes 100 μL standard and 100 μL ciprofloxacin antibody, pre-incubate for 5 minutes, 10 minutes, 15 minutes and 20 minutes at 37° C. in the microplates respectively, then take 20 μL mixture solutions of antibody and standard and add to the ciprofloxacin ELISA plate, react for 1 minute, discard the liquid in the well, and pat dry on absorbent paper, then add 20 μL mixture solution and react for 1 minute, repeat for a total 6 times; wash the plate; add HRP labeled secondary antibody, react for 30 minutes at 37° C., wash the plate; add chromogenic agent 100 μL, react for 15 minutes at 37° C.; and finally add 50 μL termination solution, then measure the OD450.

Ractopamine antibody = experiment: Competitive ELISA for Ractopamine (Embodiment 4)
Protocol: Preparing the Ractopamine microplate: Ractopamine coating antigen is added to the microplate, 100 μL/well, react for 2 hours at 37° C.; discard the liquid in the well; add blocking solution into the microplate, 100 μL/well, blocking for 1 hour at 37° C.; wash 3 times with wash buffer, leave for reservation. Prepare Ractopamine standards with concentrations of 0 ppb, 0.05 ppb, 0.15 ppb, 0.45 ppb, 1.35 ppb, 4.05 ppb respectively, with wash buffer.
Group 1: add 60 μL the standard and the Ractopamine antibody respectively into a new microplate, pre-react for 20 minutes; take 20 μL mixture solution of antibody and standard into the Ractopamine microplate, react for 1 minute, discard the liquid in the well, and pat dry on absorbent paper, then add 20 μL mixture solution and react for 1 minute, repeat for 5 times altogether, the pre-reaction product added into each well is 100 μL altogether; add HRP labeled secondary antibody, 100 μL per well, react for 45 minutes at 37° C.; wash the plate; add chromogenic agent 100 μL, react for 15 minutes at 37° C.; and finally add 50 μL termination solution, then measure the OD450.
Group 2: add 60 μL the standard and the Ractopamine antibody respectively into a new microplate, pre-react for 20 minutes; take 100 μL mixture solution of antibody and standard into the Ractopamine microplate, react for 30 minutes, discard the liquid in the well, and pat dry on absorbent paper; wash the plate; add HRP labeled secondary antibody, 100 μL per well, react for 45 minutes at 37° C., wash the plate; add chromogenic agent 100 μL, react for 15 minutes at 37° C.; and finally add 50 μL termination solution, then measure the OD450.

chloramphenicol Mcab = experiment: Competitive chemiluminescence immunoassay for chloramphenicol (Embodiment 5)
Protocol: • 1) Preparation of the chloramphenicol microplate: add chloramphenicol-BSA conjugate into the ELISA plate, 100 μL per well, overnight at 4° C., wash 3 times with a separation time of 3 minutes each, pat dry; add 5% skimmed milk powder 130 μL per well, block for 1 hour at 37° C., pat dry; wash 3 times with wash buffer, pat dry, leave for reservation. Prepare the chloramphenicol standard solutions with wash buffer: 0 ppb, 0.01 ppb, 0.03 ppb, 0.09 ppb, 0.27 ppb, 0.81 ppb. • 2) Mix the standard and the chloramphenicol Mcab in equal volumes, incubate for 20 minutes at 37° C.; then transfer the reaction product into chloramphenicol microplate; • Group 1: transfer the reaction product into ELISA plate, 20 μL/well, reaction for 1 minute at 37° C., discard liquid in the well, repeat the operation 5 times, and the pre-reaction product added to each well is total 100 μL; • Group 2: one-time transfer the whole 100 μL reaction product into the chloramphenicol microplate, reacting for 20 minute at 37° C.; • 3) Wash 3 times; add HRP labeled secondary antibody, 100 μL per well, react for 45 minutes at 37° C.; wash 5 times; after adding luminous substrate, chemiluminescence measuring instrument is applied to measure the luminous intensity.

In the case of `O=C(O)c1cn(C2CC2)c2cc(N3CCNCC3)c(F)cc2c1=O` [Ciprofloxacin], the OD450 (ciprofloxacin antibody [1]; Group 1 (20 min pre-incubation, then 30 min on plate), ciprofloxacin 1 ppb) is reported as 1.975, the OD450 (ciprofloxacin antibody [1]; Group 1 (20 min pre-incubation, then 30 min on plate), ciprofloxacin 3 ppb) is reported as 1.632 and the OD450 (ciprofloxacin antibody [1]; Group 1 (20 min pre-incubation, then 30 min on plate), ciprofloxacin 9 ppb) is reported as 1.448. For the same compound, the OD450 (ciprofloxacin antibody [1]; Group 1 (20 min pre-incubation, then 30 min on plate), ciprofloxacin 27 ppb) was 0.924, the OD450 (ciprofloxacin antibody [1]; Group 1 (20 min pre-incubation, then 30 min on plate), ciprofloxacin 81 ppb) was 0.483 and the OD450 (ciprofloxacin antibody [1]; Group 2 (no pre-incubation, 30 min on plate), ciprofloxacin 1 ppb) was 1.904. It also gave an OD450 (ciprofloxacin antibody [1]; Group 2 (no pre-incubation, 30 min on plate), ciprofloxacin 3 ppb) of 1.643, an OD450 (ciprofloxacin antibody [1]; Group 2 (no pre-incubation, 30 min on plate), ciprofloxacin 9 ppb) of 1.203 and an OD450 (ciprofloxacin antibody [1]; Group 2 (no pre-incubation, 30 min on plate), ciprofloxacin 27 ppb) of 0.952. The OD450 (ciprofloxacin antibody [1]; Group 2 (no pre-incubation, 30 min on plate), ciprofloxacin 81 ppb) was 0.523, the OD450 (ciprofloxacin antibody [2]; ciprofloxacin 1 ppb, re-reaction 1 min, 6 times) was 0.863 and 0.813 and the OD450 (ciprofloxacin antibody [2]; ciprofloxacin 1 ppb, re-reaction time 5 min) was 1.21 and 1.189. The OD450 (ciprofloxacin antibody [2]; ciprofloxacin 1 ppb, re-reaction time 10 min) was 1.517 and 1.488, the OD450 (ciprofloxacin antibody [2]; ciprofloxacin 1 ppb, re-reaction time 20 min) was 1.884 and 1.874 and the OD450 (ciprofloxacin antibody [2]; ciprofloxacin 1 ppb, re-reaction time 30 min) was 2.036 and 1.989. For the same compound, the OD450 (ciprofloxacin antibody [2]; ciprofloxacin 5 ppb, re-reaction 1 min, 6 times) was 0.412 and 0.372, the OD450 (ciprofloxacin antibody [2]; ciprofloxacin 5 ppb, re-reaction time 5 min) was 0.706 and 0.664 and the OD450 (ciprofloxacin antibody [2]; ciprofloxacin 5 ppb, re-reaction time 10 min) was 1.003 and 0.984. For the same compound, the OD450 (ciprofloxacin antibody [2]; ciprofloxacin 5 ppb, re-reaction time 20 min) was 1.342 and 1.343, the OD450 (ciprofloxacin antibody [2]; ciprofloxacin 5 ppb, re-reaction time 30 min) was 1.501 and 1.499 and the OD450 (ciprofloxacin antibody [2]; ciprofloxacin 10 ppb, re-reaction 1 min, 6 times) was 0.302 and 0.332. For the same compound, the OD450 (ciprofloxacin antibody [2]; ciprofloxacin 10 ppb, re-reaction time 5 min) was 0.565 and 0.485, the OD450 (ciprofloxacin antibody [2]; ciprofloxacin 10 ppb, re-reaction time 10 min) was 0.894 and 0.749 and the OD450 (ciprofloxacin antibody [2]; ciprofloxacin 10 ppb, re-reaction time 20 min) was 1.204 and 1.101. The OD450 (ciprofloxacin antibody [2]; ciprofloxacin 10 ppb, re-reaction time 30 min) was 1.269 and 1.182, the IC50 (ciprofloxacin antibody [2]; competitive reaction with solid phase antigen in a short time after pre-reaction) was 1 ppb and the IC50 (ciprofloxacin antibody [2]; long re-reaction time (before improvement)) was 10 ppb. The OD450 (ciprofloxacin antibody [3]; ciprofloxacin 1 ppb, pre-incubation time 5 min) was 0.337, the OD450 (ciprofloxacin antibody [3]; ciprofloxacin 1 ppb, pre-incubation time 10 min) was 0.385 and 0.353 and the OD450 (ciprofloxacin antibody [3]; ciprofloxacin 1 ppb, pre-incubation time 15 min) was 0.399 and 0.401. The OD450 (ciprofloxacin antibody [3]; ciprofloxacin 1 ppb, pre-incubation time 20 min) was 0.434 and 0.439, the OD450 (ciprofloxacin antibody [3]; ciprofloxacin 5 ppb, pre-incubation time 5 min) was 0.17 and 0.169 and the OD450 (ciprofloxacin antibody [3]; ciprofloxacin 5 ppb, pre-incubation time 10 min) was 0.175 and 0.187. For the same compound, the OD450 (ciprofloxacin antibody [3]; ciprofloxacin 5 ppb, pre-incubation time 15 min) was 0.193 and 0.206, the OD450 (ciprofloxacin antibody [3]; ciprofloxacin 5 ppb, pre-incubation time 20 min) was 0.213 and 0.22 and the OD450 (ciprofloxacin antibody [3]; ciprofloxacin 10 ppb, pre-incubation time 5 min) was 0.15 and 0.133. For the same compound, the OD450 (ciprofloxacin antibody [3]; ciprofloxacin 10 ppb, pre-incubation time 10 min) was 0.152 and 0.136, the OD450 (ciprofloxacin antibody [3]; ciprofloxacin 10 ppb, pre-incubation time 15 min) was 0.153 and 0.149 and the OD450 (ciprofloxacin antibody [3]; ciprofloxacin 10 ppb, pre-incubation time 20 min) was 0.169 and 0.178. For the same compound, the OD (Ractopamine antibody; Group 1 (20 min pre-reaction; 20 μL, 1 min, 5 times), concentration 0.05 ppb) was 1.175, the OD (Ractopamine antibody; Group 1 (20 min pre-reaction; 20 μL, 1 min, 5 times), concentration 0.15 ppb) was 0.803 and the OD (Ractopamine antibody; Group 1 (20 min pre-reaction; 20 μL, 1 min, 5 times), concentration 0.45 ppb) was 0.517. The OD (Ractopamine antibody; Group 1 (20 min pre-reaction; 20 μL, 1 min, 5 times), concentration 1.35 ppb) was 0.324, the OD (Ractopamine antibody; Group 1 (20 min pre-reaction; 20 μL, 1 min, 5 times), concentration 4.05 ppb) was 0.183 and the OD (Ractopamine antibody; Group 2 (20 min pre-reaction; 100 μL, 30 min), concentration 0.05 ppb) was 1.584. The OD (Ractopamine antibody; Group 2 (20 min pre-reaction; 100 μL, 30 min), concentration 0.15 ppb) was 1.391, the OD (Ractopamine antibody; Group 2 (20 min pre-reaction; 100 μL, 30 min), concentration 0.45 ppb) was 1.003 and the OD (Ractopamine antibody; Group 2 (20 min pre-reaction; 100 μL, 30 min), concentration 1.35 ppb) was 0.602. The OD (Ractopamine antibody; Group 2 (20 min pre-reaction; 100 μL, 30 min), concentration 4.05 ppb) was 0.323.
For `O=C(N[C@H](CO)[C@H](O)c1ccc([N+](=O)[O-])cc1)C(Cl)Cl` [chloramphenicol], the B/B0 (chloramphenicol Mcab; Group 1 (20 μL/well, 1 min, 5 times), chloramphenicol standard 0.01 ppb) was 0.88 and 0.89, the B/B0 (chloramphenicol Mcab; Group 1 (20 μL/well, 1 min, 5 times), chloramphenicol standard 0.03 ppb) was 0.66 and 0.64 and the B/B0 (chloramphenicol Mcab; Group 1 (20 μL/well, 1 min, 5 times), chloramphenicol standard 0.09 ppb) was 0.49 and 0.48. The B/B0 (chloramphenicol Mcab; Group 1 (20 μL/well, 1 min, 5 times), chloramphenicol standard 0.27 ppb) was 0.21 and 0.23, the B/B0 (chloramphenicol Mcab; Group 1 (20 μL/well, 1 min, 5 times), chloramphenicol standard 0.81 ppb) was 0.11 and 0.17 and the B/B0 (chloramphenicol Mcab; Group 2 (one-time 100 μL, 20 min), chloramphenicol standard 0.01 ppb) was 0.96 and 0.94. For the same compound, the B/B0 (chloramphenicol Mcab; Group 2 (one-time 100 μL, 20 min), chloramphenicol standard 0.03 ppb) was 0.88 and 0.89, the B/B0 (chloramphenicol Mcab; Group 2 (one-time 100 μL, 20 min), chloramphenicol standard 0.09 ppb) was 0.69 and the B/B0 (chloramphenicol Mcab; Group 2 (one-time 100 μL, 20 min), chloramphenicol standard 0.27 ppb) was 0.46 and 0.48. The B/B0 (chloramphenicol Mcab; Group 2 (one-time 100 μL, 20 min), chloramphenicol standard 0.81 ppb) was 0.28 and 0.27.

Source: US20150148249A1, “METHOD OF IMPROVING THE SENSITIVITY OF COMPETITIVE IMMUNOASSAY” (SHENZHEN BIOEASY BIOTECHNOLOGY CO., LTD, priority 2012, published 2015)
